This note sets out measurements from patent publication US4959368A, “Therapeutic agent for neurological diseases” (Mitsui Petrochemical Industries Ltd., priority 1986, dated 1990).

Each structure is given as a SMILES string.

The subject of this assay is mouse neuroblastoma cell line neuro-2a. The assay is described as follows: Activity on neuro-2a, cells with outgrown neurites. The assay is classed as cell-based. The method, then:
In order to examine the effects of the test compounds, the following method was also employed.
Mouse neuro 2a cells in the logarithmic growth period in the Dulbecco's modified Eagle's medium (DMEM) containing 10% FCS was seeded in a 48-well plate so that the number of cells was 1,000 cells/well, and cultured for one day in 0.25 ml of the culture fluid in each well. The culture medium was then replaced by a medium containing each of the test compounds and FCS, and the cells were further cultured for 24 hours. Then, a 4% aqueous glutaraldehyde solution in the same amount as the medium (0.25 ml) was added, and the culture fluid was left to stand at room temperature for 2 hours to fix the cells. After washing with water, a 0.05% aqueous solution of methylene blue was added to stain the cells. Under a microscope, the number of cells containing outgrown neurites (cells having at least one neutrite with a length at least two times as large as the long diameter of the cell) was counted visually, and the proportion of these cells in the entire cells was calculated. The well was observed over 5 or more visual fields (at least 2% of the entire surface area of the well) continuous to the left and right from a mark put at the center of the well, and more than 200 cells was counted. One drug compound was used in 6 different concentrations at most, and three runs were conducted for each concentration.

Setting [1] is: Table 3 Run No. 2, 0.3 mM, control 1.9 ± 0.9.
The mark [2] stands for this setting: Table 3 Run No. 2, 1 mM, control 1.9 ± 0.9.
Setting [3] is: Table 3 Run No. 10, 0.1 mM, control 1.7 ± 0.7.
Setting [4] is: Table 3 Run No. 9, 0.03 mM, control 2.0 ± 1.0.
[5] abbreviates: Table 3 Run No. 8, 0.3 mM, control 3.7 ± 0.4.
[6] abbreviates: Table 3 Run No. 8, 0.5 mM, control 3.7 ± 0.4.
The mark [7] stands for this setting: Table 3 Run No. 8, 1 mM, control 3.7 ± 0.4.
The mark [8] stands for this setting: Table 3 Run No. 4, 0.3 mM, control 3.1 ± 0.2.
Where [9] appears, read: Table 3 Run No. 4, 0.5 mM, control 3.1 ± 0.2.
Where [10] appears, read: Table 3 Run No. 4, 1 mM, control 3.1 ± 0.2.
Setting [11] is: Table 3 Run No. 4, 0.1 mM, control 3.1 ± 0.2.
Setting [12] is: Table 3 second Run No. 5, 1 mM, control 4.5 ± 0.3.
The mark [13] stands for this setting: Table 3 Run No. 9, 0.1 mM, control 2.0 ± 1.0.
Where [14] appears, read: Table 3 Run No. 9, 0.3 mM, control 2.0 ± 1.0.
[15] abbreviates: Table 3 Run No. 9, 1 mM, control 2.0 ± 1.0.
[16] abbreviates: Table 3 Run No. 9, 3 mM, control 2.0 ± 1.0.

As for `CCCN(CCC)C(=O)c1cnc(N2CCNCC2)nc1NCC` [Compound 104], the “Cells having neurites with a length at least twice the long diameter of cell/total number of cells” value came out at 10.6 ± 4.6% under setting [1] and 5.3 ± 1.8% under setting [2].
For `CCN(CC)C(=O)c1cnc(N2CCNCC2)nc1NC(C)C` [Compound 108] the same measures were 4.6 ± 1.2% and 6.9 ± 1.6%.
Take `CCN(CC)C(=O)c1cnc(N2CCNCC2)nc1OC` [Compound 112]: under setting [2], the “Cells having neurites with a length at least twice the long diameter of cell/total number of cells” value is listed as 3.5 ± 0.5%.
As to `COC(=O)c1cnc(N2CCNCC2)nc1NC(C)C` [Compound 116], the “Cells having neurites with a length at least twice the long diameter of cell/total number of cells” value reads like this: (Table 3 Run No. 10, 0.01 mM, control 1.7 ± 0.7) 7.5 ± 2.2%; (Table 3 Run No. 10, 0.03 mM, control 1.7 ± 0.7) 11.6 ± 2.0%; under setting [3], 10.6 ± 4.5%.
For `CNc1nc(N2CCNCC2)ncc1CCO` [Compound 140, 2-Piperazino-5-(2-hydroxyethyl)-4-methylaminopyrimidine 2-naphthalenesulfonate], the “Cells having neurites with a length at least twice the long diameter of cell/total number of cells” value under setting [4] is 3.7 ± 1.4%.
In the case of `Cl.c1nc(N2CCNCC2)nc2c1CCC2` [Compound 202, 6,7-Dihydro-2-piperazino(5H)cyclopentapyrimidine hydrochloride], where the note is “Table 3 Run No. 6, 0.1 mM, control 4.4 ± 0.9”, the “Cells having neurites with a length at least twice the long diameter of cell/total number of cells” value was 5.6 ± 1.1%.
For `CN1C(=O)Cc2cnc(N3CCNCC3)nc21` [Compound 410], the “Cells having neurites with a length at least twice the long diameter of cell/total number of cells” value under setting [5] stood at 22.4 ± 2.9%, the “Cells having neurites with a length at least twice the long diameter of cell/total number of cells” value under setting [6] is 36.7 ± 6.1% and the “Cells having neurites with a length at least twice the long diameter of cell/total number of cells” value under setting [7] worked out at 15.5 ± 0.3%.
`CN1C(=O)Cc2cnc(N3CCNCC3)nc21` [Compound 412]: the “Cells having neurites with a length at least twice the long diameter of cell/total number of cells” value came to 16.6 ± 2.6% (Table 3 Run No. 3, 0.3 mM, control 3.9 ± 0.3); 44.2 ± 1.4% (Table 3 Run No. 3, 1 mM, control 3.9 ± 0.3); 15.8 ± 2.3% under setting [8]; 27.9 ± 2.9% under setting [9]; 47.8 ± 0.4% under setting [10]; 18.4 ± 0.5% under setting [5]. Further, the “Cells having neurites with a length at least twice the long diameter of cell/total number of cells” value is, setting by setting: under setting [6], 49.5 ± 3.5%; under setting [7], 32.6 ± 1.3%.
As to `CN1C(=O)Cc2cnc(N3CCNCC3)nc21` [Compound 414], the “Cells having neurites with a length at least twice the long diameter of cell/total number of cells” value is, setting by setting: under setting [5], 15.0 ± 4.0%; under setting [6], 33.4 ± 2.6%; under setting [7], 43.6 ± 7.8%.
In the case of `CN1C(=O)Cc2cnc(N3CCNCC3)nc21` [Compound 416], the “Cells having neurites with a length at least twice the long diameter of cell/total number of cells” value (Table 3 Run No. 8, 0.1 mM, control 3.7 ± 0.4) came out at 11.7 ± 3.3%; the “Cells having neurites with a length at least twice the long diameter of cell/total number of cells” value under setting [5] is given as 40.4 ± 9.2%; the “Cells having neurites with a length at least twice the long diameter of cell/total number of cells” value under setting [6] came to 48.7 ± 5.7%.
On to `CN1C(=O)Cc2cnc(N3CCNCC3)nc21.O=P(O)(O)O` [Compound 418, 5,6-Dihydro-7-methyl-6-oxo-2-piperazino(7H)pyrrolo[2,3-d]pyrimidine phosphate], for which the “Cells having neurites with a length at least twice the long diameter of cell/total number of cells” value runs as follows: under setting [5], 16.6 ± 1.1%; under setting [6], 29.6 ± 3.3%; under setting [7], 47.4 ± 1.6%.
For `CN1C(=O)Cc2cnc(N3CCNCC3)nc21` [Compound 420] the same measures were 16.5 ± 2.1%, 30.6 ± 5.0% and 47.5 ± 0.6%.
For `COCCN1C(=O)Cc2cnc(N3CCNCC3)nc21.O=C(O)/C=C\C(=O)O` [Compound 430, 5,6-Dihydro-7-(2-methoxyethyl)-6-oxo-2-piperazino(7H)pyrrolo[2,3-d]pyrimidine maleate], the “Cells having neurites with a length at least twice the long diameter of cell/total number of cells” value by setting is: under setting [11], 7.2 ± 1.9%; under setting [9], 11.7 ± 1.8%; under setting [10], 13.4 ± 0.4%; (Table 3 second Run No. 5, 0.3 mM, control 4.5 ± 0.3) 7.6 ± 0.8%; under setting [12], 9.0 ± 0.8%.
`CN1C(=O)Cc2cnc(N3CCN(Cc4ccccc4)CC3)nc21` [Compound 434, 2-(4-Benzylpiperazino)-5,6-dihydro-7-methyl-6-oxo(7H)pyrrolo[2,3-d]pyrimidine 2-naphthalenesulfonate]: the “Cells having neurites with a length at least twice the long diameter of cell/total number of cells” value under setting [13] is recorded as 6.0 ± 1.2%.
Turning to `CN1C(=O)Cc2cnc(N3CCN(Cc4ccc5c(c4)OCO5)CC3)nc21` [Compound 436, 5,6-Dihydro-7-methyl-2[4-(3,4-methylenedioxyphenylmethyl)piperazino]-6-oxo(7H)pyrrolo[2,3-d]pyrimidine], the “Cells having neurites with a length at least twice the long diameter of cell/total number of cells” value under setting [4] is given as 14.3 ± 2.9%, the “Cells having neurites with a length at least twice the long diameter of cell/total number of cells” value under setting [13] turned out to be 15.6 ± 7.3% and the “Cells having neurites with a length at least twice the long diameter of cell/total number of cells” value under setting [14] worked out at 12.5 ± 6.2%.
Consider `CC(=O)N1CCN(c2ncc3c(n2)N(C)C(=O)C3)CC1` [Compound 440, 2-(4-Acetylpiperazino)-5,6-dihydro-7-methyl-6-oxo(7H)pyrrolo[2,3-d]pyrimidine], for which the “Cells having neurites with a length at least twice the long diameter of cell/total number of cells” value by setting is: under setting [15], 5.8 ± 1.0%; under setting [16], 12.9 ± 4.1%.
With `CCOC(=O)N1CCN(c2ncc3c(n2)N(C)C(=O)C3)CC1` [Compound 442], the “Cells having neurites with a length at least twice the long diameter of cell/total number of cells” value was determined as 5.7 ± 0.5% (Table 3 Run No. 2, 0.1 mM, control 1.9 ± 0.9); 7.1 ± 2.6% under setting [1]; 9.1 ± 0.8% under setting [2]; 13.8 ± 1.2% under setting [16].
`CC1C(=O)N(C)c2nc(N3CCNCC3)ncc21.O=C(O)/C=C\C(=O)O` (stereo not drawn) [Compound 446, 5,6-Dihydro-5,7-dimethyl-6-oxo-2-piperazino(7H)pyrrolo[2,3-d]pyrimidine maleate]: the “Cells having neurites with a length at least twice the long diameter of cell/total number of cells” value was determined as 6.3 ± 0.4% (Table 3 Run No. 9, 0.5 mM, control 2.0 ± 1.0) and 9.2 ± 2.0% under setting [15].
In the case of `Cc1nc(N2CCNCC2)nc2c1CC(=O)N2C` [Compound 464, 5,6-Dihydro-4,7-dimethyl-6-oxo-2-piperazino(7H)pyrrolo[2,3-d]pyrimidine], the “Cells having neurites with a length at least twice the long diameter of cell/total number of cells” value is given as 7.1 ± 1.6% under setting [11], 10.1 ± 1.9% under setting [8] and 13.1 ± 1.1% under setting [10].
In the case of `Cc1nc(N2CCNCC2)nc2c1CC(=O)N2C.Cl` [Compound 466, 5,6-Dihydro-4,7-dimethyl-6-oxo-2-piperazino(7H)pyrrolo[2,3-d]pyrimidine hydrochloride], the “Cells having neurites with a length at least twice the long diameter of cell/total number of cells” value runs as follows: (Table 3 second Run No. 5, 0.1 mM, control 4.5 ± 0.3) 5.4 ± 0.3%; under setting [12], 13.1 ± 1.4%.
On to `CCC(C)N1Cc2nc(N3CCNCC3)ncc2C1=O` (stereo not drawn) [Compound 638], for which the “Cells having neurites with a length at least twice the long diameter of cell/total number of cells” value under setting [13] was 6.5 ± 0.2%.
On to `CC(C)(C)N1Cc2nc(N3CCNCC3)ncc2C1=O` [Compound 642], for which the “Cells having neurites with a length at least twice the long diameter of cell/total number of cells” value is 9.5 ± 1.2% under setting [13] and 14.4 ± 4.0% under setting [14].
Consider `CCCC(C)N1Cc2nc(N3CCNCC3)ncc2C1=O` (stereo not drawn) [Compound 646], for which, under setting [3], the “Cells having neurites with a length at least twice the long diameter of cell/total number of cells” value stood at 7.3 ± 0.2%.
`NC(=O)CN1Cc2nc(N3CCNCC3)ncc2C1=O` [Compound 652]: the “Cells having neurites with a length at least twice the long diameter of cell/total number of cells” value under setting [2] turned out to be 4.5 ± 0.3%.
